Test results as given in publication PMC5994430, “Mitochondrial Delivery of Phenol Substructure Triggers Mitochondrial Depolarization and Apoptosis of Cancer Cells” (Frontiers in Pharmacology, 2018).

Legend:
BEAS-2B cells = test: Cell viability (neutral red); type: cell-based, Human; settings: BEAS-2B; 0.1 μM, 72 h
Excerpt: (§1) Human colon cancer HT29 cells, colon-derived normal fibroblast CCD-18Co cells, lung cancer A549 cells, normal human bronchial epithelial (immortalized with adenovirus 12-SV40 virus hybrid Ad12SV40) BEAS-2B cells, breast cancer MDA-MB-231 cells, normal breast epithelial MCF10A cells, human osteosarcoma U-2OS cells were purchased from ATCC (Manassas, VA, United States). […] All subjects gave written informed consent in accordance with the Declaration of Helsinki. Cells were maintained in medium supplemented with 10% v/v fetal bovine serum, 1% v/v penicillin-streptomycin, 1% v/v L-glutamine. Morphological analysis was performed with a bright field microscope (Leica Microsystems, Wetzlar, Germany). At least 5 fields/experimental condition were examined.
(§2) LDH activity was measured in the extracellular medium and in the cell lysate: 50 μl of extracellular medium or 5 μl of cell lysate were incubated at 37°C with 5 mM NADH. The reaction was started by adding 20 mM pyruvic acid and was monitored for 6 min, measuring absorbance at 340 nm using a Synergy HT Multi-Detection Microplate Reader (Bio-Tek Instruments, Winoosky, MT, United States). […] Both intracellular and extracellular enzyme activities were expressed as μmol NADH oxidized/min/dish. The results were expressed as percentage of extracellular LDH versus total (intracellular plus extracellular) LDH. […] The absorbance of untreated cells was considered as 100% viability; the results were expressed as percentage of viable cells versus untreated cells. IC50 was calculated with the CompuSyn software^1.

A549 cells = test: Cell viability (neutral red); type: cell-based, Human; settings: A549; 0.1 μM, 72 h
Excerpt: as §1, §2

C[P+](c1ccccc1)(c1ccccc1)c1ccccc1.[Cl-] [TPMP, methyltriphenylphosphonium chloride, reference compound]
cell viability (BEAS-2B cells): did not reduce viability | cell viability (A549 cells): did not reduce viability
